Measured values from patent US20170081724A1, “METHOD AND KITS FOR DETERMINING SENSITIVITY TO CANCER TREATMENT” (Dana-Farber Cancer Institute, Inc., priority 2014, published 2017).

Tested on: ERCC2-deficient fibroblast cell line (GM08207) expressing GFP, WT ERCC2 or mutant ERCC2
Experiment: Cisplatin sensitivity assay (CellTiter-Glo survival, 120 hours)
Type: cell-based, human
Procedure: The expression plasmids harboring WT ERCC2, GFP (negative control), or mutant ERCC2s were expanded in E. coli TOP10 cells (Invitrogen) and purified using an anion exchange kit (Qiagen). Lentiviruses were propagated in 293T cells by cotransfection of the expression plasmid with plasmids encoding viral packaging and envelope proteins. Unless otherwise noted, all human cell lines were cultured in Dulbecco's Modified Eagle's Medium (Invitrogen) supplemented with 10% fetal bovine serum (Sigma) and 1% L-glutamine and grown at 37° C. and 5% CO2. The 293T cell supernatants containing virus were collected after 48 hours, filtered twice (0.45 μm syringe filter, Millipore), then added directly to growing cultures of an SV40-transformed pseudodiploid ERCC2-deficient fibroblast cell line derived from an XP patient of genetic complementation group D (GM08207; Coriell Institute). Polybrene® (Sigma) was added to a final concentration of 8 μg/ml to increase the efficiency of infection. […]
Cells were transferred to 96-well plates at a density of 500 cells per well. […] After 120 hours, CellTiter-Glo reagent (Promega) was added to the wells and the plates were scanned using a luminescence microplate reader (BioTek). […] IC50 concentrations were calculated using a four parameter sigmoidal model and plots were generated using Prism (GraphPad). […]

SMILES: N.N.[Cl][Pt][Cl] [cisplatin]
- cisplatin IC50 (WT ERCC2 complemented cell line compared with ERCC2-deficient parent cell line, P=0.0003, ANOVA): significantly higher
- cisplatin IC50 (each mutant ERCC2 cell line (five mutants) compared with parent ERCC2-deficient cell line): not significantly different
